In the assay the test system is glycogen synthase. Kind of assay: Glycogen Synthase (GS) Assay. It is filed as biochemical. The following applies: for EC50: compound concentration needed to give 50% maximum activation; for GS SC200: compound concentration needed to stimulate 200% of the enzyme activity. On the procedure:
Twelve μL per well of substrate solution containing glycogen (4.32 mg/ml), 2.67 mM UDP-glucose, 21.6 mM phospho(enol)pyruvate and 2.7 mM NADH in 30 mM glycylglycine, pH 7.3 buffer was added into a polystyrene 384-well assay plate (BD Biosciences).
Compound solutions (8 μL/well) at various concentrations (0-300 μM) were added to the assay plate (columns 5-24). Compound solution contains 30 mM glycylglycine, pH 7.3, 40 mM KCl, 20 mM MgCl2, 9.2% DMSO, with (columns 15-24) or without (columns 5-14) 20 mM glucose 6-phosphate.
Enzyme solution (12 μL/well) containing glycogen synthase (16.88 μg/ml), pyruvate kinase (0.27 mg/ml), lactate dehydrogenase (0.27 mg/ml) in 50 mM Tris-HCl, pH 8.0, 27 mM DTT and bovine serum albumin (BSA, 0.2 mg/ml) was added to the assay plate (columns 3-24). As a blank control, enzyme solution without glycogen synthase was added into the top half wells of columns 1-2. To the bottom half wells of columns 1-2 were added a known activator, glucose 6-phosphate (at final concentration 5 mM) in addition to the enzyme solution. The reaction mixture was incubated at room temperature. The assay plate was then read for absorbance at 340 nm on an Envision reader every 3 minutes up to a total of 15 minutes.
The enzyme activity (with or without compound) was calculated by the reaction rate and represented by the optical density change (δOD) per minute. Percent stimulation of glycogen synthase activity by a compound at various concentrations was calculated by the following formula: […]
wherein Rs is the reaction rate of the enzyme in the presence of compound and Rt is the reaction rate of the enzyme in the absence of compound.
SC200 is defined as the compound concentration that is needed to stimulate 200% of the enzyme activity. EC50 is defined as the compound concentration that is needed to give 50% maximum activation.

On to `Cc1cc(F)c(F)cc1-c1ccc(OCc2cccc3c(=O)n(CC(=O)O)[nH]c23)cc1.Cl` [Example 9, [7-(4′,5′-Difluoro-2′-methyl-biphenyl-4-yloxymethyl)-3-oxo-1,3-dihydro-indazol-2-yl]acetic acid Hydrochloride], for which a half-maximal effect (EC50) was put at 420 nM and the “GS SC200” value was determined as 0.33 µM.

Turning to `Cc1cc(F)c(F)cc1-c1ccc(OCc2cccc3c(=O)n(C[C@@H](O)CO)[nH]c23)cc1` [Example 19, 7-(4′,5′-Difluoro-2′-methyl-biphenyl-4-yloxymethyl)-2-((R)-2,3-dihydroxy-propyl)-1,2-dihydro-indazol-3-one], the midpoint of the response, the EC50, lay at 230 nM and the “GS SC200” value worked out at 0.10 µM.

As for `COc1cc(F)c(F)cc1-c1ccc(OCc2cccc3c(=O)n(C[C@@H](O)CO)[nH]c23)cc1` [Example 17, 7-(4′,5′-Difluoro-2′-methoxy-biphenyl-4-yloxymethyl)-2-((R)-2,3-dihydroxy-propyl)-1,2-dihydro-indazol-3-one], the EC50 amounted to 270 nM and the “GS SC200” value is 0.06 µM.

Turning to `O=C(O)Cn1[nH]c2c(COc3ccc(-c4cc(F)c(F)cc4F)cc3)cccc2c1=O` [Example 4, [3-oxo-7-(2′,4′,5′-trifluoro-biphenyl-4-yloxymethyl)-1,3-dihydro-indazol-2-yl]-acetic acid], the EC50 turned out to be 1200 nM and the “GS SC200” value was found to be 0.69 µM.

On to `O=c1c2cccc(COc3ccc(-c4cc(F)c(F)cc4F)cc3)c2[nH]n1C[C@@H](O)CO` [Example 15, 2-((R)-2,3-Dihydroxy-propyl)-7-(2′,4′,5′-trifluoro-biphenyl-4-yloxymethyl)-1,2-dihydro-indazol-3-one], for which the EC50 amounted to 680 nM and the “GS SC200” value was 0.32 µM.

On to `COc1cc(F)c(F)cc1-c1ccc(OCc2cccc3c(=O)n(C)[nH]c23)cc1` [Example 3, 7-(4′,5′-Difluoro-2′-methoxy-biphenyl-4-yloxymethyl)-2-methyl-1,2-dihydro-indazol-3-one], for which a half-maximal effect (EC50) was put at 330 nM and the “GS SC200” value is 0.04 µM.

As to `O=c1c2cccc(COc3ccc(-c4cc(F)c(F)cc4Cl)cc3)c2[nH]n1C[C@H](O)CO` [Example 22, 7-(2′-Chloro-4′,5′-difluoro-biphenyl-4-yloxymethyl)-2-((S)-2,3-dihydroxy-propyl)-1,2-dihydro-indazol-3-one], the EC50 amounted to 300 nM and the “GS SC200” value turned out to be 0.16 µM.

In the case of `COc1cc(F)c(F)cc1-c1ccc(OCc2cccc3c(=O)n(CC(=O)O)[nH]c23)cc1` [Example 5, [7-(4′,5′-Difluoro-2′-methoxy-biphenyl-4-yloxymethyl)-3-oxo-1,3-dihydro-indazol-2-yl]-acetic acid], the response was half-maximal at 200 nM (EC50) and the “GS SC200” value came to 0.06 µM.

`COc1cc(F)c(F)cc1-c1ccc(OCc2cccc3c(=O)n(-c4cccnc4)[nH]c23)cc1` [Example 12, 7-(4′,5′-Difluoro-2′-methoxy-biphenyl-4-yloxymethyl)-2-pyridin-3-yl-1,2-dihydro-indazol-3-one]: a half-maximal response (EC50) required 780 nM and the “GS SC200” value was 0.60 µM.

`Cc1cc(F)c(F)cc1-c1ccc(OCc2cccc3c(=O)n(C[C@H](O)CO)[nH]c23)cc1` [Example 20, 7-(4′,5′-Difluoro-2′-methyl-biphenyl-4-yloxymethyl)-2-((S)-2,3-dihydroxy-propyl)-1,2-dihydro-indazol-3-one]: the EC50 was 340 nM and the “GS SC200” value stood at 0.11 µM.

Turning to `COc1cc(F)c(F)cc1-c1ccc(OCc2cccc3c(=O)n(C[C@H](O)CO)[nH]c23)cc1` [Example 18, 7-(4′,5′-Difluoro-2′-methoxy-biphenyl-4-yloxymethyl)-2-((S)-2,3-dihydroxy-propyl)-1,2-dihydro-indazol-3-one], the EC50 was determined as 250 nM and the “GS SC200” value was 0.07 µM.

Take `O=c1c2cccc(COc3ccc(-c4cc(F)c(F)cc4F)cc3)c2[nH]n1CCO` [Example 8, 2-(2-Hydroxy-ethyl)-7-(2′,4′,5′-trifluoro-biphenyl-4-yloxymethyl)-1,2-dihydro-indazol-3-one]: it took 770 nM to reach a half-maximal effect (EC50) and the “GS SC200” value was 0.22 µM.

Consider `O=c1c2cccc(COc3ccc(-c4cc(F)c(F)cc4Cl)cc3)c2[nH]n1-c1cccnc1` [Example 14, 7-(4′,5′-Difluoro-2′-chloro-biphenyl-4-yloxymethyl)-2-pyridin-3-yl-1,2-dihydro-indazol-3-one], for which a half-maximal response (EC50) required 1860 nM and the “GS SC200” value was 1.14 µM.

As to `Cn1[nH]c2c(COc3ccc(-c4cc(F)c(F)cc4F)cc3)cccc2c1=O` [Example 2, 2-Methyl-7-(2′,4′,5′-trifluoro-biphenyl-4-yloxymethyl)-1,2-dihydro-indazol-3-one], the EC50 amounted to 1780 nM and the “GS SC200” value came out at 0.49 µM.

With `Cl.O=c1c2cccc(COc3ccc(-c4cc(F)c(F)cc4F)cc3)c2[nH]n1-c1cccnc1` [Example 13, 2-Pyridin-3-yl-7-(2′,4′,5′-trifluoro-biphenyl-4-yloxymethyl)-1,2-dihydro-indazol-3-one Hydrochloride], a half-maximal effect (EC50) was put at 4010 nM and the “GS SC200” value amounted to 2.75 µM.

On to `Cc1cc(F)c(F)cc1-c1ccc(OCc2cccc3c(=O)n(-c4ccc(F)cc4)[nH]c23)cc1` [Example 10, 7-(4′,5′-Difluoro-2′-methyl-biphenyl-4-yloxymethyl)-2-(4-fluoro-phenyl)-1,2-dihydro-indazol-3-one], for which the EC50 came out at 1470 nM and the “GS SC200” value was 1.86 µM.

With `Cc1cc(F)c(F)cc1-c1ccc(OCc2cccc3c(=O)n(C)[nH]c23)cc1` [Example 1, 7-(4′,5′-Difluoro-2′-methyl-biphenyl-4-yloxymethyl)-2-methyl-1,2-dihydro-indazol-3-one], the EC50 amounted to 240 nM and the “GS SC200” value worked out at 0.13 µM.

With `COc1cc(F)c(F)cc1-c1ccc(OCc2cccc3c(=O)n(-c4ccc(F)cc4)[nH]c23)cc1` [Example 11, 7-(4′,5′-Difluoro-2′-methoxy-biphenyl-4-yloxymethyl)-2-(4-fluoro-phenyl)-1,2-dihydro-indazol-3-one], the response was half-maximal at 1370 nM (EC50) and the “GS SC200” value amounted to 2.01 µM.

`COCCn1[nH]c2c(COc3ccc(-c4cc(F)c(F)cc4F)cc3)cccc2c1=O.Cl` [Example 6, 2-(2-Methoxy-ethyl)-7-(2′,4′,5′-trifluoro-biphenyl-4-yloxymethyl)-1,2-dihydro-indazol-3-one Hydrochloride]: the EC50 worked out at 790 nM and the “GS SC200” value is 0.52 µM.

On to `O=c1c2cccc(COc3ccc(-c4cc(F)c(F)cc4F)cc3)c2[nH]n1C[C@H](O)CO` [Example 16, 2-((S)-2,3-Dihydroxy-propyl)-7-(2′,4′,5′-trifluoro-biphenyl-4-yloxymethyl)-1,2-dihydro-indazol-3-one], for which a half-maximal effect (EC50) was put at 580 nM and the “GS SC200” value came out at 0.41 µM.

Consider `O=c1c2cccc(COc3ccc(-c4cc(F)c(F)cc4Cl)cc3)c2[nH]n1C[C@@H](O)CO` [Example 21, 7-(2′-Chloro-4′,5′-difluoro-biphenyl-4-yloxymethyl)-2-((R)-2,3-dihydroxy-propyl)-1,2-dihydro-indazol-3-one], for which a half-maximal response (EC50) required 260 nM and the “GS SC200” value was found to be 0.25 µM.

With `COCCn1[nH]c2c(COc3ccc(-c4cc(F)c(F)cc4OC)cc3)cccc2c1=O` [Example 7, 7-(4′,5′-Difluoro-2′-methoxy-biphenyl-4-yloxymethyl)-2-(2-methoxy-ethyl)-1,2-dihydro-indazol-3-one], the response was half-maximal at 370 nM (EC50) and the “GS SC200” value came out at 0.11 µM.

As usually defined, the EC50 is the concentration at which the effect is half-maximal. A low value points to an effect from little substance.
